From patent EP0082731A1, “The use of peptides as medicaments” (NOVO INDUSTRI A/S, priority 1981, dated 1983)

Tested on: Normoglycaemic Rats
Test: Experiment D: effect on plasma glucose and plasma IRI levels in normoglycaemic rats
Type: in vivo, Wistar rats
Details: for Blood glucose / Plasma IRI: i.v. injection at 0 min, equimolar doses (glucagon 1 mg/kg, glucagon(1-21) 0.77 mg/kg), mean, N = 10
Experimental: Glucagon (-1 mg/kg) and an equimolar dosis of glucagon(1-21), i.e. 0.77 mg/kg, were injected intravenously at the beginning time (time: 0 minutes) to normally fed male Wistar rats weighing 150 g (+/- 5 g). Blood samples were taken from the orbital plexus at the times -5, 2, 5, 10, 15, 30, and 60 minutes. Blood glucose was assayed according to the hexokinase method and plasma insulin was assayed by RIA. […] Contrary to glucagon, glucagon(1-21) had no effect on these parameters. Mean blood glucose values (N = 10) are stated in Table VI below, and mean plasma IRI values (N = 10) are stated in Table VII below.

[1] = normally fed rats, i.v., glucagon 1 mg/kg, glucagon(1-21) 0.77 mg/kg

“glucagon-(1-21)-heneicosapeptide (HSQGTFTSDYSKYLDSRRAQD; Glucagon; UniProt P01275 53-73, looked up, fragment) [glucagon(1-21)]” was tested, and the hyperglycaemia (in vivo in normally fed rats) was “does not cause hyperglycaemia”, the insulin release (in vivo in normally fed rats) was “does not cause hyperglycaemia or release insulin” and the “IRI release and plasma glucose levels” value (infused to rats and pigs with plasma glucose levels below 1.2 mg/ml) was “neither release IRI nor influence the plasma glucose levels”. The Blood glucose (normally fed rats, time 2 min) was 1.1 mg/mL, the “Plasma IRI” value (normally fed rats, time 2 min) was 30 µU/ml and the Blood glucose (normally fed rats, time 5 min) was 1.1 mg/mL. The “Plasma IRI” value (normally fed rats, time 5 min) was 33 µU/ml, the Blood glucose (normally fed rats, time 10 min) was 1.2 mg/mL and the “Plasma IRI” value (normally fed rats, time 10 min) was 35 µU/ml. For the same substance, the Blood glucose (normally fed rats, time 15 min) was 1.3 mg/mL, the “Plasma IRI” value (normally fed rats, time 15 min) was 43 µU/ml and the Blood glucose (normally fed rats, time 30 min) was 1.3 mg/mL. The “Plasma IRI” value (normally fed rats, time 30 min) was 38 µU/ml, the Blood glucose (normally fed rats, time 60 min) was 1.3 mg/mL and the “Plasma IRI” value (normally fed rats, time 60 min) was 30 µU/ml. For the same substance, the Blood glucose (normally fed rats, time -5 min) was 1.0 mg/mL, the “Plasma IRI” value (normally fed rats, time -5 min) was 32 µU/ml and the “effect on blood glucose” value [1] was “no effect”. For the same substance, the “effect on plasma IRI” value [1] was “no effect”.
